Assays:
Format in all cases: cell-based
[1] = system: human pancreatic islet beta cells; test: Beta cell proliferation in human islet microtissues
Experimental: Human islet microtissues were aggregated for 5 days and then released into ultra-low attachment plates. Half of the plates were maintained in standard culture medium (5.5 mM glucose), and half were cultured in high-glucose culture medium (GTX, 8 mM glucose) starting at Day 6, for the duration of the whole experiment. Starting on Day 9 (after 3 days of GTX pre-treatment for the relevant plates), dosing with compounds was initiated, using a Tecan D300e Digital Dispenser. DMSO was normalized by volume across all wells. Media were exchanged and compounds were redosed every 2-3 days throughout the experiment. Compound dosing was randomized; to avoid compound cross-contamination between wells, all medium exchanges were performed using 96-well deep well plates with pipette tip exchange.
FIG. 32 provides human pancreatic islet beta cell proliferation on Day 14 and Day 21. In FIG. 32, A is ATP content; B is proliferating beta cell fraction; and C is beta cell fraction. Upper graphs are standard media, and lower graphs are high glucose media. […]
Individual islet microtissues can be cultured in 96-well culture plates and maintained in the presence of Compound 10, a representative irreversible menin-MLL inhibitor, at the appropriate concentration. […] Following 2 or more weeks of culturing, proliferation of beta cells is monitored via immunofluorescence staining for appropriate markers. […]

[2] = system: DB; test: DLBCL cell line proliferation (Cell Titer Glo, four days): DB; conditions: DHL
Experimental: DLBCL cell line TOLEDO was cultured in the presence of Compound A or clinical reversible menin inhibitors for six and fourteen hours. Menin protein expression was reduced up to 60% at 1 μM by Compound A after fourteen hours compared to clinical reversible inhibitors at <20% at similar concentrations. Menin protein expression was measured by the Wes system and analyzed using the Compass software (automated western blotting, Protein Simple). Signal was normalized to GAPDH and referenced to DMSO control (FIG. 36E). DLBCL and MM cell lines were cultured with Compound A, bortezomib (PS-341), or DMSO for four days and cell proliferation was measured by Cell Titer Glo. Ex vivo studies of DLBCL and MM models were conducted by measurement of cell proliferation (Cell Titer Glo) after six days of treatment with Compound A, PS-341, or DMSO control.

[3] = system: KRAS mutated CRC, NSCLC and pancreatic cancer cell lines; test: Proliferation of KRAS mutated cell lines (CellTiter-Glo, four days); conditions: Homo sapiens, the 31st table c5, read-out: RAS WT GI50 (μM) Pancreatic (4)

Compound: C=CC(=O)N[C@@H]1CCCN(Cc2ccnc(C(=O)Nc3ccc(-c4cc5c(N6CCOCC6)ncnc5[nH]4)cc3)c2)C1 [Compound A, N-[4-[4-(4-morpholinyl)-7H-pyrrolo[2,3-d]pyrimidin-6-yl]phenyl]-4-[[3(R)-[(1-oxo-2-propen-1-yl)amino]-1-piperidinyl]methyl]-2-pyridinecarboxamide]
- human pancreatic islet beta cell proliferation (proliferating beta cell fraction) ([1]; Day 14 and Day 21, compared to control): induced human pancreatic islet beta cells substantially compared to control
- beta-cell proliferation ([1]; glucose stress (8 mM glucose) vs standard glucose (5.5 mM)): dose dependent increase in beta-cell proliferation under glucose stress condition, but not under standard glucose conditions
- Average % Max Inhibition by Compound A ([2]; MYC/BCL2): 98.5%
- IC50 ([2]; Homo sapiens, MYC/BCL2, read-out: Average IC50 ± Standard Deviation): 407 ± 67 nM
- GI50 [3]: 0.43 to 0.83 µM

— patent publication US20240417404A1, “CRYSTALLINE FORMS OF N-[4-[4-(4-MORPHOLINYL)-7H-PYRROLO[2,3-d]PYRIMIDIN-6-YL]PHENYL]-4-[[3(R)-[(1-OXO-2-PROPEN-1-YL)AMINO]-1-[sequence]]METHYL]-2-PYRIDINECARBOXAMIDE AS IRREVERSIBLE INHIBITORS OF MENIN-MLL INTERACTION” (BIOMEA FUSION, INC., priority 2023, published 2024)
